Data from ChEMBL document CHEMBL1201862, “PubChem BioAssay data set” (2004).
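All cell lines were grown in 96-well plates and treated with compound for 48 hours. Here, GI50 denotes the concentration required for 50% inhibition of growth.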 Activity calls are given as the source filed them. Cut-off read from the data, not from the text of the source: active = GI50 up to about 1.1 µM and inactive = higher.

What was measured:
Assay in all cases: NCI tumour cell line growth inhibition, 48 h
SNB-75 = system: SNB-75
MDA-N = system: MDA-N
CCRF-CEM = system: CCRF-CEM
PC-3 = system: PC-3
LOX IMVI = system: LOX IMVI
U-251 = system: U-251
UACC-62 = system: UACC-62
OVCAR-3 = system: OVCAR-3
ACHN = system: ACHN
SF-539 = system: SF-539
MDA-MB-435 = system: MDA-MB-435
SK-MEL-5 = system: SK-MEL-5
COLO 205 = system: COLO 205
M14 = system: M14
K562 = system: K562
RPMI-8226 = system: RPMI-8226
UACC-257 = system: UACC-257
OVCAR-5 = system: OVCAR-5
SN12C = system: SN12C
SK-MEL-28 = system: SK-MEL-28
Hs-578T = system: Hs-578T
SNB-19 = system: SNB-19
SF-295 = system: SF-295
A498 = system: A498
HOP-62 = system: HOP-62
SR = system: SR
NCI/ADR-RES = system: NCI/ADR-RES
MOLT-4 = system: MOLT-4
HCT-116 = system: HCT-116
OVCAR-8 = system: OVCAR-8
HOP-92 = system: HOP-92
SW-620 = system: SW-620
A549 = system: A549
CAKI-1 = system: CAKI-1
TK-10 = system: TK-10
UO-31 = system: UO-31
T47D = system: T47D
NCI-H522 = system: NCI-H522
SK-OV-3 = system: SK-OV-3
RXF 393 = system: RXF 393
MCF7 = system: MCF7
HCT-15 = system: HCT-15
EKVX = system: EKVX
HT-29 = system: HT-29
HCC 2998 = system: HCC 2998
SF-268 = system: SF-268
HL-60 = system: HL-60
NCI-H226 = system: NCI-H226
DU-145 = system: DU-145
BT-549 = system: BT-549
MDA-MB-231 = system: MDA-MB-231
IGROV-1 = system: IGROV-1
KM12 = system: KM12
SK-MEL-2 = system: SK-MEL-2
NCI-H460 = system: NCI-H460
OVCAR-4 = system: OVCAR-4
NCI-H23 = system: NCI-H23
DMS-114 = system: DMS-114
SNB-78 = system: SNB-78
786-0 = system: 786-0
Malme-3M = system: Malme-3M
LXFL 529 = system: LXFL 529
KM-20L2 = system: KM-20L2
DMS-273 = system: DMS-273
DLD-1 = system: DLD-1
M19-MEL = system: M19-MEL

Cc1c(N)nc([C@H](CC(N)=O)NC[C@H](N)C(N)=O)nc1C(=O)N[C@H](C(=O)N[C@H](C)[C@@H](O)CC(=O)N[C@H](C(=O)NC(O[C@@H]1O[C@@H](C)[C@@H](N)[C@@H](O)[C@H]1O)C(O)c1nc(-c2nc(C(=O)NCCCCN)cs2)cs1)[C@@H](C)O)[C@@H](O[C@@H]1O[C@@H](CO)[C@@H](O)[C@H](O)[C@@H]1O[C@H]1O[C@H](CO)[C@@H](O)[C@H](OC(N)=O)[C@@H]1O)c1c[nH]cn1 (some centres not stated)
GI50 (SNB-75): 6.73 µM (inactive)
GI50 (MDA-N): > 50 µM (inactive)
GI50 (CCRF-CEM): > 50 µM (inactive)
GI50 (PC-3): > 50 µM (inactive)
GI50 (LOX IMVI): 2.89 µM (inactive)
GI50 (U-251): > 50 µM (inactive)
GI50 (UACC-62): 11.9 µM (inactive)
GI50 (OVCAR-3): > 48.1 µM (inactive)
GI50 (ACHN): 0.223 µM (active)
GI50 (SF-539): 0.311 µM (active)
GI50 (MDA-MB-435): > 50 µM (inactive)
GI50 (SK-MEL-5): 12.6 µM (inactive)
GI50 (COLO 205): > 50 µM (inactive)
GI50 (M14): > 36.9 µM (inactive)
GI50 (K562): > 50 µM (inactive)
GI50 (RPMI-8226): > 50 µM (inactive)
GI50 (UACC-257): > 50 µM (inactive)
GI50 (OVCAR-5): > 50 µM (inactive)
GI50 (SN12C): 16.5 µM (inactive)
GI50 (SK-MEL-28): > 50 µM (inactive)
GI50 (Hs-578T): 18.7 µM (inactive)
GI50 (SNB-19): > 50 µM (inactive)
GI50 (SF-295): 1.14 µM (inactive)
GI50 (A498): > 50 µM (inactive)
GI50 (HOP-62): 1.98 µM (inactive)
GI50 (SR): 0.0316 µM (active)
GI50 (NCI/ADR-RES): 7.89 µM (inactive)
GI50 (MOLT-4): > 39.9 µM (inactive)
GI50 (HCT-116): 3.86 µM (inactive)
GI50 (OVCAR-8): 12.6 µM (inactive)
GI50 (HOP-92): 12.9 µM (inactive)
GI50 (SW-620): > 50 µM (inactive)
GI50 (A549): 18.7 µM (inactive)
GI50 (CAKI-1): 5.85 µM (inactive)
GI50 (TK-10): > 50 µM (inactive)
GI50 (UO-31): 3.78 µM (inactive)
GI50 (T47D): > 50 µM (inactive)
GI50 (NCI-H522): 11.2 µM (inactive)
GI50 (SK-OV-3): > 50 µM (inactive)
GI50 (RXF 393): 7.67 µM (inactive)
GI50 (MCF7): > 39.9 µM (inactive)
GI50 (HCT-15): > 32.2 µM
GI50 (EKVX): > 50 µM (inactive)
GI50 (HT-29): > 50 µM (inactive)
GI50 (HCC 2998): 0.134 µM (active)
GI50 (SF-268): 16.1 µM (inactive)
GI50 (HL-60): > 44.2 µM (inactive)
GI50 (NCI-H226): 0.216 µM (active)
GI50 (DU-145): > 27.7 µM (inactive)
GI50 (BT-549): > 50 µM (inactive)
GI50 (MDA-MB-231): > 50 µM (inactive)
GI50 (IGROV-1): 16 µM (inactive)
GI50 (KM12): 49.1 µM (inactive)
GI50 (SK-MEL-2): > 50 µM (inactive)
GI50 (NCI-H460): 0.145 µM (active)
GI50 (OVCAR-4): > 50 µM (inactive)
GI50 (NCI-H23): 5.73 µM (inactive)

COc1cc(C)cc2c1[nH]c1ccccc12 [MURRAYAFOLINE A]
GI50 (OVCAR-3): 8.91 µM (inactive)
GI50 (K562): > 25 µM (inactive)
GI50 (RPMI-8226): 8.65 µM (inactive)
GI50 (OVCAR-5): 24.5 µM (inactive)
GI50 (SNB-19): > 25 µM (inactive)
GI50 (HOP-62): 6.53 µM (inactive)
GI50 (DMS-114): 9.64 µM (inactive)
GI50 (SNB-78): > 25 µM (inactive)
GI50 (OVCAR-8): 7.33 µM (inactive)
GI50 (A549): 11.5 µM (inactive)
GI50 (TK-10): > 25 µM (inactive)
GI50 (RXF 393): 9.16 µM (inactive)
GI50 (OVCAR-4): > 25 µM (inactive)

CC(=N\N=C\c1ccccn1)/C(C)=N/N=C(C)/C(C)=N/N=C/c1ccccn1
GI50 (SNB-75): > 100 µM (inactive)
GI50 (MDA-N): > 100 µM (inactive)
GI50 (CCRF-CEM): > 100 µM (inactive)
GI50 (PC-3): > 100 µM (inactive)
GI50 (LOX IMVI): > 100 µM (inactive)
GI50 (U-251): > 100 µM (inactive)
GI50 (OVCAR-3): > 100 µM (inactive)
GI50 (ACHN): > 100 µM (inactive)
GI50 (SF-539): > 100 µM (inactive)
GI50 (MDA-MB-435): > 100 µM (inactive)
GI50 (SK-MEL-5): > 100 µM (inactive)
GI50 (COLO 205): > 100 µM (inactive)
GI50 (M14): > 100 µM (inactive)
GI50 (RPMI-8226): > 100 µM (inactive)
GI50 (UACC-257): > 100 µM (inactive)
GI50 (OVCAR-5): > 100 µM (inactive)
GI50 (SN12C): > 100 µM (inactive)
GI50 (SK-MEL-28): > 100 µM (inactive)
GI50 (Hs-578T): > 100 µM (inactive)
GI50 (SNB-19): > 100 µM (inactive)
GI50 (SF-295): > 100 µM (inactive)
GI50 (A498): > 100 µM (inactive)
GI50 (HOP-62): > 100 µM (inactive)
GI50 (SR): > 100 µM (inactive)
GI50 (NCI/ADR-RES): > 100 µM (inactive)
GI50 (HCT-116): > 100 µM (inactive)
GI50 (OVCAR-8): > 100 µM (inactive)
GI50 (HOP-92): > 100 µM (inactive)
GI50 (SW-620): > 100 µM (inactive)
GI50 (A549): > 100 µM (inactive)
GI50 (CAKI-1): > 100 µM (inactive)
GI50 (TK-10): > 100 µM (inactive)
GI50 (UO-31): > 100 µM (inactive)
GI50 (T47D): > 100 µM (inactive)
GI50 (NCI-H522): > 100 µM (inactive)
GI50 (SK-OV-3): > 100 µM (inactive)
GI50 (RXF 393): > 100 µM (inactive)
GI50 (MCF7): > 100 µM (inactive)
GI50 (HCT-15): 71.3 µM
GI50 (EKVX): > 100 µM (inactive)
GI50 (HT-29): > 100 µM (inactive)
GI50 (HCC 2998): > 100 µM (inactive)
GI50 (SF-268): > 100 µM (inactive)
GI50 (HL-60): > 100 µM (inactive)
GI50 (NCI-H226): > 100 µM (inactive)
GI50 (786-0): > 100 µM (inactive)
GI50 (DU-145): > 100 µM (inactive)
GI50 (BT-549): > 100 µM (inactive)
GI50 (MDA-MB-231): > 100 µM (inactive)
GI50 (IGROV-1): > 100 µM (inactive)
GI50 (KM12): > 100 µM (inactive)
GI50 (SK-MEL-2): > 100 µM (inactive)
GI50 (NCI-H460): > 100 µM (inactive)
GI50 (OVCAR-4): > 100 µM (inactive)
GI50 (Malme-3M): > 100 µM (inactive)
GI50 (NCI-H23): > 100 µM (inactive)

c1ccc2c(c1)C1CCCCCC21N1CCOCC1 (configuration not stated)
GI50 (LXFL 529): 50 µM (inactive)
GI50 (SNB-75): 34.8 µM (inactive)
GI50 (CCRF-CEM): 97.7 µM (inactive)
GI50 (LOX IMVI): > 100 µM (inactive)
GI50 (U-251): 78.5 µM (inactive)
GI50 (KM-20L2): > 100 µM (inactive)
GI50 (UACC-62): > 100 µM (inactive)
GI50 (OVCAR-3): 20.6 µM (inactive)
GI50 (ACHN): > 100 µM (inactive)
GI50 (SF-539): > 100 µM (inactive)
GI50 (SK-MEL-5): 44.2 µM (inactive)
GI50 (COLO 205): > 100 µM (inactive)
GI50 (M14): 98.2 µM (inactive)
GI50 (K562): 45.1 µM (inactive)
GI50 (UACC-257): > 100 µM (inactive)
GI50 (OVCAR-5): > 100 µM (inactive)
GI50 (SN12C): > 100 µM (inactive)
GI50 (SK-MEL-28): > 100 µM (inactive)
GI50 (SNB-19): 29.7 µM (inactive)
GI50 (SF-295): > 100 µM (inactive)
GI50 (A498): > 100 µM (inactive)
GI50 (HOP-62): > 100 µM (inactive)
GI50 (DMS-114): 38.8 µM (inactive)
GI50 (MOLT-4): 32.6 µM (inactive)
GI50 (HCT-116): 54.2 µM (inactive)
GI50 (SNB-78): > 100 µM (inactive)
GI50 (OVCAR-8): > 100 µM (inactive)
GI50 (DMS-273): 67.1 µM (inactive)
GI50 (DLD-1): 84.5 µM (inactive)
GI50 (SW-620): > 100 µM (inactive)
GI50 (A549): > 100 µM (inactive)
GI50 (CAKI-1): > 100 µM (inactive)
GI50 (TK-10): > 100 µM (inactive)
GI50 (UO-31): > 100 µM (inactive)
GI50 (M19-MEL): > 100 µM (inactive)
GI50 (NCI-H522): 52.4 µM (inactive)
GI50 (SK-OV-3): > 100 µM (inactive)
GI50 (RXF 393): > 100 µM (inactive)
GI50 (HCT-15): 52 µM
GI50 (HT-29): 86.3 µM (inactive)
GI50 (HCC 2998): > 100 µM (inactive)
GI50 (SF-268): > 100 µM (inactive)
GI50 (HL-60): 44.6 µM (inactive)
GI50 (NCI-H226): 92.9 µM (inactive)
GI50 (786-0): > 100 µM (inactive)
GI50 (IGROV-1): > 100 µM (inactive)
GI50 (KM12): > 100 µM (inactive)
GI50 (SK-MEL-2): > 100 µM (inactive)
GI50 (NCI-H460): 69 µM (inactive)
GI50 (OVCAR-4): 91 µM (inactive)
GI50 (NCI-H23): > 100 µM (inactive)
